Data as given in patent publication US10695347B2, “Pyrimidine derivative and use thereof” (Hubei Bio-Pharmaceutical Industrial Technological Institute …, priority 2015, dated 2020).

Tests used:
[1] = molecular target: ALK L1196M (Homo sapiens (Human), UniProt Q9UM73, L1196M); test: Inhibition of ALK L1196M kinase activity (Caliper mobility shift); assay type: biochemical
Experimental: (§1) Inhibition of Compound I Against ALK Kinase Activity
(§2) • I. Preparation of 1× kinase buffer and stop buffer
(§3) 1) 1× Kinase Buffer • 50 mM HEPES. pH 7.5 • 0.0015% Brij-35 • 10 mM MgCl2 • 2 mM DTT • 2) stop buffer • 100 mM HEPES, pH 7.5 • 0.015% Brij-35 • 0.2% Coating Reagent #3 • 50 mM EDTA
(§4) 2. Prepare a Compound Solution to be Tested • Step 2.1 Dilute the compound to 50× of the final desired highest inhibitor concentration in reaction by 100% DMSO. Transfer 100 μl of this compound dilution to a well in a 96-well plate. For example, if desired highest inhibitor concentration is 1 μM, then prepare 50 μM of compound DMSO solution in this step.
(§5) Step 2.2 Further dilute said compound dilution by 3-fold in series, thus obtain 10 concentrations.
(§6) Step 2.3 Add 100 μl of 100% DMSO to two empty wells for no compound control and no enzyme control in the same 96-well plate. Mark the plate as source plate.
(§7) Step 2.4 Prepare an intermediate plate
(§8) Transfer 10 μl of each compound from the source plate to a new 96-well plate as the intermediate plate.
(§9) Add 90 μl of 1× kinase buffer to each well of the intermediate plate. Mix the compounds in the intermediate plate for 10 min on a shaker.
(§10) Transfer 5 μl of each well from the 96-well intermediate plate to a 384-well plate in duplicate. For example, A1 of the 96-well plate is transferred to A1 and A2 of the 384-well plate. A2 of the 96-well plate is transferred to A3 and A4 of the 384-well plate, and so on.
(§11) 4.1 Prepare a 2.5× kinase solution
(§12) Add kinase in 1× kinase base buffer, thus obtain the 2.5× kinase solution.
(§13) 4.2 Prepare a 2.5× peptide solution
(§14) 4.3 In each well of the assay plate obtained in step 3, there was 5 μL of the compound in 10% DMSO.
(§15) 4.4 Transfer the 2.5× enzyme solution to the assay plate.
(§16) 4.5 Incubate at room temperature for 10 min.
(§17) 4.6 Transfer the 2.5× peptide solution to the assay plate.
(§18) 4.7 Kinase reaction and stop
(§19) Incubate at 28° C. for 20 min.
(§20) Add 25 μl of stop buffer to stop reaction.
(§21) Conversion rate of the kinase was read via the Caliper.
(§22) 6.1 Copy conversion data from Caliper program.
(§23) 6.2 Convert conversion values to inhibition values with the following formula: Percent inhibition=(max−conversion)/(max−min)*100
(§24) where “max” stands for DMSO control; and “min” stands for low control.
(§25) 6.3 Fit the data in XLfit excel add-in version 4.3.1 and obtain IC50 values according to the following formula: Y=Bottom+(Top−Bottom)/[…].

[2] = system: Karpas299 cells; test: Suppression of Karpas299 cell proliferation (CellTiter-Glo); assay type: cell-based; conditions: Homo sapiens, KARPAS-299, 72 h; 3 days incubation; read-out: Inhibition activity on Karpas299 cells IC50
Experimental: (§26) As the amount of ATP can indicate the number of living cells directly, the living cells in culture are able to be quantified by determining the ATP level. In our experiment, we use a living-cell testing kit to quantify the living cells, which utilizes UltraGlow luciferase to generate a stable glow signal in the presence of ATP which is produced by metabolism of living cells, such as respiration. Specifically, a reagent CellTiter-Glo™ was added into cell culture media, and then the luminescent intensity was determined to measure proliferation of cells, as the luminescent intensity is in direct proportion to the ATP level which correlates positively to the number of living cells. The test plate was tested with the Envision (PE).
Cell media: RPMI-1640 medium, fetal calf serum (FCS), antibiotics (Penicillin-Streptomycin)
Assay reagent: Cell Viability Assay Kit CellTiter-Glo
(§27) Others: a 96-well plate, a 384-well plate, DMSO
(§28) Step 3.1 Culturing test cells
Karpas 299 cells were plated into a black 384-well plate, with 2500 cells in 45 μl cell suspension per well. The plate was placed in a carbon dioxide incubator overnight.
(§29) Step 3.2 Preparation of the compounds to be tested
Each compound to be tested was dissolved in DMSO at 10 mM as the stock solution, which was left in a nitrogen-gas tank for storage.
After dilution of 10 μL stock solution (10 mM) into 2.5 mM as a starting working solution, 10 concentrations of the working solutions from 5 μM to 0.25 nM were obtained in duplicate by further dilution in 3-fold series with ECHO.
Step 3.3 Mixing the compound with the test cells
To each well of a new 96-well plate were added 49 μl medium and 1 μl of the compounds to be tested at individual working concentrations (10 concentrations in total). After oscillation,
5 μl of mixture in each well of the 96-well plate was transferred into corresponding wells in the 384-well plate in the step 3.1. The 384-well plate was incubated in the carbon dioxide incubator for 3 days.
To each well of the 384-well plate was added […] reagent Promega CellTiter-Glo. and incubated at room temperature for 10 minutes to stabilize the luminescence signal. The results were read with the PerkinElmer Envision Multi-mode Plate Reader.

[3] = molecular target: ALK (Homo sapiens (Human), UniProt Q9UM73); test: Inhibition of ALK kinase activity (Caliper mobility shift); assay type: biochemical
Sequence of ALK (Q9UM73 19-1620): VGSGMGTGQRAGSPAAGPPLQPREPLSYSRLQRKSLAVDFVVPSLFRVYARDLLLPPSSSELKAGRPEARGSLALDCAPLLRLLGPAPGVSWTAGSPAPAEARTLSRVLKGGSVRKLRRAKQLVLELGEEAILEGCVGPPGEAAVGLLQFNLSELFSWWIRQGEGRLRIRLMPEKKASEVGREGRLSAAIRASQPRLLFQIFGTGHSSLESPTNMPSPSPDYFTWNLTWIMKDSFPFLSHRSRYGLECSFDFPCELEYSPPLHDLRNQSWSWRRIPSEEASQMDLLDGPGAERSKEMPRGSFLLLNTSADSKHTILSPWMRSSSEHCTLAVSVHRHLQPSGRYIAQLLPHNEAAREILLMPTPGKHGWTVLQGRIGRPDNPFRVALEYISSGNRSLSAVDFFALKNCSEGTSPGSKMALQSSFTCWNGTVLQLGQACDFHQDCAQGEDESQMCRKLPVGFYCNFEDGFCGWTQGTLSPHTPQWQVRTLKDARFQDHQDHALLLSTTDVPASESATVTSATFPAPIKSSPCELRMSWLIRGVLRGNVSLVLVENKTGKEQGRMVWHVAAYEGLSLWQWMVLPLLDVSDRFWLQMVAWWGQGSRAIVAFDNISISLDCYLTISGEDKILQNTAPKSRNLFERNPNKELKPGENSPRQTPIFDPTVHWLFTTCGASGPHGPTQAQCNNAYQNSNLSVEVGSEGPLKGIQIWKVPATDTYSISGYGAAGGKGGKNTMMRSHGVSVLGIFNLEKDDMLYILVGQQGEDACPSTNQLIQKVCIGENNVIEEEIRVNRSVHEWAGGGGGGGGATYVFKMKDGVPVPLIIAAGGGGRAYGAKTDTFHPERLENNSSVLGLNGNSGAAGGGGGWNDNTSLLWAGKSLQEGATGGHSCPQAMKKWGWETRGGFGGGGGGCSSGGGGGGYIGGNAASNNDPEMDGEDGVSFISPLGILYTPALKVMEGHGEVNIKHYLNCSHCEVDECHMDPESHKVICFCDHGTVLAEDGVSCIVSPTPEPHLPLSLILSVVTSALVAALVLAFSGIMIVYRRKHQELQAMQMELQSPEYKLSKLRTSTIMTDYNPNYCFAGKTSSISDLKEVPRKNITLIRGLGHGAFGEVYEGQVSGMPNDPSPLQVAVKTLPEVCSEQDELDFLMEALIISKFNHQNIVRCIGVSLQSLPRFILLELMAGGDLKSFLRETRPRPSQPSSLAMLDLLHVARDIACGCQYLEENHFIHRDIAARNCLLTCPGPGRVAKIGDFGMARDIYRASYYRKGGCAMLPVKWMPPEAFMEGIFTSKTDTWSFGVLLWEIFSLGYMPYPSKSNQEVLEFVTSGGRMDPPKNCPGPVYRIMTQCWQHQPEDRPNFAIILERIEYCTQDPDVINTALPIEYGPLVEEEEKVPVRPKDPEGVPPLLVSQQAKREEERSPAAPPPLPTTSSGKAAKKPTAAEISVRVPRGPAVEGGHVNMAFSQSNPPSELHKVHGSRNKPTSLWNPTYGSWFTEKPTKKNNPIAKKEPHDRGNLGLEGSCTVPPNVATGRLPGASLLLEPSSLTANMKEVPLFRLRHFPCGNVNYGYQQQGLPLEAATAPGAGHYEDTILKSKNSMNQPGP
Experimental: as §1, §2, §3, §4, §5, §6, §7, §8, §9, §10, §11, §12, §13, §14, §15, §16, §17, §18, §19, §20, §21, §22, §23, §24, §25

[4] = system: Ba/F3 EML4-ALK cells; test: Suppression of Ba/F3 EML4-ALK cell proliferation (CellTiter-Glo); assay type: cell-based; conditions: Ba/F3 EML4-ALK, 72 h; 3 days incubation
Source text: Cell media: RPMI-1640 medium, fetal calf serum (FCS), antibiotics (Penicillin-Streptomycin), IL-3, puromycin
Cell line: Ba/F3 EML4-ALK
Assay reagent: Cell Viability Assay Kit Celliter-Glo
as §27
as §26, with “in medium” for “in culture”, “a cell viability assay” for “a living-cell testing”, “was assayed by” for “was tested with”
as §28
Ba/F3 EML4-ALK cells were planted into a 384-well plate, with almost 300 cells per well. The plate was placed in a carbon dioxide incubator overnight.
as §29
10 concentrations of the working solutions were obtained in duplicate by dilution in 3-fold series with BRAVO.
Step 3.3 Mixing the compound to be tested with the test cells
The compounds to be tested at individual working concentrations were transferred into corresponding wells in the 384-well plate in the step 3.1, with 5 μM as the initial working concentration, and then the 384-well plate was incubated in the carbon dioxide incubator for 3 days.
To each well of the 384-well plate was added the reagent Promega CellTiter-Glo, and incubated at room temperature for 10 minutes to stabilize the luminescence signal. The results were read by the PerkinElmer Envision Multi-mode Plate Reader.

Sequence of ALK L1196M (Q9UM73 19-1620 L1196M): as the sequence (Q9UM73 19-1620) above, with L1178M counted along it

Row | Compound | IC50 [1] [nM] | IC50 [2] [nM] | IC50 [3] [nM] | IC50 [4] [nM]
1 | COc1cc(N2CCC(N(C)C)CC2)ccc1Nc1ncc(Cl)c(Nc2cccnc2S(=O)(=O)C(C)C)n1 [Compound I-6] | 1 to 10 | < 50 | 1 to 10 | < 20
2 | COc1cc(N2CCN(C)CC2)ccc1Nc1ncc(Cl)c(Nc2cccnc2S(=O)(=O)C(C)C)n1 [Compound I-5] | 1 to 10 | < 50 | 1 to 10 | < 20
3 | COc1cc(N2CCC(N3CCC(N(C)C)CC3)CC2)ccc1Nc1ncc(Cl)c(Nc2ccccc2S(=O)(=O)C(C)C)n1 [Compound I-15] |  | 50 to 100 |  | < 20
4 | CC(C)Oc1cc(N2CCC(N(C)C)CC2)ccc1Nc1ncc(OC(F)F)c(Nc2ccccc2S(=O)(=O)C(C)C)n1 [Compound I-113, 5-(difluoromethoxy)-N^2-(4-(4-(dimethylamino)piperidin-1-yl)-2-isopropoxyphenyl)-N^4-(2-(isopropylsulfonyl)phenyl) pyrimidine-2,4-diamine] | < 1 | < 50 | < 1 | < 20
5 | COc1cc(CN2CCC(N(C)C)CC2)ccc1Nc1ncc(OC(F)F)c(Nc2ccccc2S(=O)(=O)C(C)C)n1 [Compound I-103] |  | 50 to 100 | 1 to 10 | < 20
6 | COc1cc(C2=CCN(C(C)C)CC2)ccc1Nc1ncc(Cl)c(Nc2ccsc2S(=O)(=O)C(C)C)n1 [Compound I-86, 5-chloro-N^2-(4-(1-isopropyl-1,2,3,6-tetrahydropyridin-4-yl)-2-methoxyphenyl)-N^4-(2-(isopropylsulfonyl)thiophen-3-yl) pyrimidine-2,4-diamine] | < 1 | < 50 | < 1 | < 20
7 | COc1cc(N2CCN(C(C)C)CC2)ccc1Nc1ncc(Cl)c(Nc2cccnc2S(=O)(=O)C(C)C)n1 [Compound I-23] | 1 to 10 | < 50 | 1 to 10 | < 20
8 | CC(C)S(=O)(=O)c1ccccc1Nc1nc(Nc2ccc(N3CCC(N(C)C)CC3)cc2OC(F)F)ncc1OC(F)F [Compound I-114] |  | < 50 |  | < 20
9 | COc1cc(C2=CCNCC2)c(C)cc1Nc1ncc(Cl)c(Nc2cccnc2S(=O)(=O)C(C)C)n1 [Compound I-89] |  | 50 to 100 | 1 to 10 | < 20
10 | COc1cc(N2CCN(C)CC2)ccc1Nc1ncc(Cl)c(Nc2ccccc2S(=O)(=O)C(C)C)n1 [Compound I-13] |  | < 50 |  | < 20
11 | CC(C)S(=O)(=O)c1ncccc1Nc1nc(Nc2ccc(N3CCC(N(C)C)CC3)cc2OC(F)F)ncc1Cl [Compound I-100, 5-chloro-N^2-(2-(difluoromethoxy)-4-(4-(dimethylamino)piperidin-1-yl)phenyl)-N^4-(2-(isopropylsulfonyl)pyridin-3-yl) pyrimidine-2,4-diamine] | 1 to 10 | < 50 | 1 to 10 | 20 to 100
12 | COc1cc(CN2CCC(N(C)C)CC2)ccc1Nc1ncc(Cl)c(Nc2cccnc2S(=O)(=O)C(C)C)n1 [Compound I-107] | 1 to 10 | 50 to 100 |  | 20 to 100
13 | COc1cc(N2CCC(N3CCN(C)CC3)CC2)ccc1Nc1ncc(Cl)c(Nc2ccsc2S(=O)(=O)C(C)C)n1 [Compound I-11] | 1 to 10 | < 50 | 1 to 10 | < 20
14 | CC(C)Oc1cc(N2CCC(N(C)C)CC2)ccc1Nc1ncc(Cl)c(Nc2ccsc2S(=O)(=O)C(C)C)n1 [Compound I-82, 5-chloro-N^2-(4-(4-(dimethylamino)piperidin-1-yl)-2-isopropoxyphenyl)-N^4-(2-(isopropylsulfonyl)thiophen-3-yl) pyrimidine-2,4-diamine] | < 1 | < 50 | < 1 | 20 to 100
15 | COc1cc(CN2CCC(N(C)C)CC2)ccc1Nc1ncc(Cl)c(Nc2ccccc2S(=O)(=O)C(C)C)n1 [Compound I-109] | 1 to 10 | 50 to 100 | 1 to 10 | < 20
16 | COc1cc(C2=CCN(C)CC2)ccc1Nc1ncc(Cl)c(Nc2cccnc2S(=O)(=O)C(C)C)n1 [Compound I-84, 5-chloro-N^4-(2-(isopropylsulfonyl)pyridin-3-yl)-N^2-(2-methoxy-4-(1-methyl-1,2,3,6-tetrahydropyridin-4-yl)phenyl) pyrimidine-2,4-diamine] | 1 to 10 | < 50 | 1 to 10 | 20 to 100
17 | COc1cc(N2CCN(C)CC2)ccc1Nc1ncc(Cl)c(Nc2ccsc2S(=O)(=O)C(C)C)n1 [Compound I-2] |  | < 50 |  | < 20
18 | COc1cc(N2CCC(O)CC2)ccc1Nc1ncc(Cl)c(Nc2ccsc2S(=O)(=O)C(C)C)n1 [Compound I-16] |  | < 50 |  | < 20
19 | COc1cc(N2CCOCC2)ccc1Nc1ncc(Cl)c(Nc2ccsc2S(=O)(=O)C(C)C)n1 [Compound I-1] |  | < 50 |  | < 20
20 | COc1cc(N2CCC(N(C)C)CC2)ccc1Nc1ncc(Cl)c(Nc2ccsc2S(=O)(=O)C(C)C)n1 [Compound I-3] |  | < 50 |  | < 20
21 | CC(C)S(=O)(=O)c1ccccc1Nc1nc(Nc2ccc(N3CCC(N(C)C)CC3)cc2OC(F)F)ncc1Cl [Compound I-95] |  | < 50 |  | 20 to 100
22 | COc1cc(N2CCC(N3CCOCC3)CC2)ccc1Nc1ncc(Cl)c(Nc2ccsc2S(=O)(=O)C(C)C)n1 [Compound I-8] |  | < 50 |  | < 20
23 | COc1cc(N2CCC(N(C)C)CC2)ccc1Nc1ncc(Cl)c(Nc2ccccc2S(=O)(=O)C(C)C)n1 [Compound I-14] |  | < 50 |  | < 20
